The target in one data set is Cytochrome P450 2C9 (Homo sapiens, UniProt P11712). Description: Inhibition of CYP2C9 (unknown origin).
Data set [1] can be described thus: Permeability of the compound at pH 7.4 at 100 uM after 4 hrs by PAMPA. A general note: PAMPA measures passive passage across an artificial lipid membrane.
A short description of data set [2]: Permeability of the compound at pH 5.5 at 100 uM after 4 hrs by PAMPA.
For data set [3], the target named is C-X-C chemokine receptor type 4 (Mus musculus, UniProt P70658). Description: Antagonist activity at mouse CXCR4.
The target of data set [4] is T1, C-X-C chemokine receptor type 4 (Homo sapiens, UniProt P61073). Nature of the data set: Agonist activity at CXCR4 in human CCRF-CEM cells assessed as induction of Ca2+ flux measured for 90 secs by calcium dye-based fluorescence assay. In kind it is functional, cell-based. A general note: Calcium flux is commonly read through the fluorescence of an indicator in the cells.

Data set [5] has as its target T1, C-X-C chemokine receptor type 4. Description: Antagonist activity at human CXCR4 in CCRF-CEM cells assessed as decrease in SDF-1alpha stimulated Ca2+ flux preincubated for 25 mins followed by SDF-1alpha addition measured for 90 secs by calcium dye-based fluorescence assay. The data set is classed as functional, cell-based.
Data set [6] can be described thus: Agonist activity at mAChR in human CCRF-CEM cells assessed as induction of Ca2+ flux measured for 90 secs by calcium dye-based fluorescence assay. The data set is classed as cell-based.
Another data set deals with Cytochrome P450 2D6 (Homo sapiens, UniProt P10635). Nature of the data set: Inhibition of recombinant human CYP2D6 expressed in microsomes of insect cells using AMMC as substrate preincubated for 30 mins followed by NADP addition after 45 mins by fluorescence analysis.
A further data set deals with Cytochrome P450 2C19 (Homo sapiens, UniProt P33261). Nature of the data set: Inhibition of CYP2C19 (unknown origin).
Data set [7] can be described thus: Inhibition of CYP1A4 (unknown origin).
The nature of data set [8]: Metabolic stability in mouse liver microsomes assessed as parent compound remaining at 0.5 uM after 10 mins in presence of NADPH by LC-MS/MS analysis. (Liver microsomes are a subcellular fraction often used to study metabolism.)
The nature of data set [9]: Antagonist activity at mAChR in human CCRF-CEM cells assessed as decrease in acetylacholine-stimulated Ca2+ flux preincubated for 25 mins followed by acetylacholine addition measured for 90 secs by calcium dye-based fluorescence assay. In kind it is cell-based.
A short description of data set [10]: Metabolic stability in human liver microsomes assessed as parent compound remaining at 0.5 uM after 10 mins in presence of NADPH by LC-MS/MS analysis.
Another data set deals with T2, Cytochrome P450 2C8 (Homo sapiens, UniProt P10632).
T2 sequence (P10632 whole entry): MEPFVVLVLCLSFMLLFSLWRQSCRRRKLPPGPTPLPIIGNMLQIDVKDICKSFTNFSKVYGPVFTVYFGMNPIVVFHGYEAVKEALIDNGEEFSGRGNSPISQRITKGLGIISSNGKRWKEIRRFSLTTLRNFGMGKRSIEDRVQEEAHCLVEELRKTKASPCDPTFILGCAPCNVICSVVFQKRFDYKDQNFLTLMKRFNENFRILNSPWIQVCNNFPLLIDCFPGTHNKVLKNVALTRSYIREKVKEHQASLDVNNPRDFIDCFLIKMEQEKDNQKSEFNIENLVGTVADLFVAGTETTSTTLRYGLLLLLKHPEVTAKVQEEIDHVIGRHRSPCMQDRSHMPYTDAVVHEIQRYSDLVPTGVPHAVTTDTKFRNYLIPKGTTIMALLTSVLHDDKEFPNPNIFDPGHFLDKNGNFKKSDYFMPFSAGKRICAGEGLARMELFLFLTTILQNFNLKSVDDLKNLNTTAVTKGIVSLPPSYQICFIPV
Description: Inhibition of CYP2C8 (unknown origin).

Another data set addresses Cytochrome P450 3A4 (Homo sapiens, UniProt P08684). Description: Inhibition of CYP3A4 (unknown origin).
For another data set, the species on record is Homo sapiens. Description: Inhibition of chemokine receptor (unknown origin) at 10 uM.
Data set [11] is described as follows: Half life in rat Plasma. In kind it is ADME, cell-free.
Data set [12] can be described thus: Half life in human liver microsomes. The data set is classed as ADME, microsome.

The text below walks through data of ChEMBL document CHEMBL4052827, “Discovery of Tetrahydroisoquinoline-Containing CXCR4 Antagonists with Improved in Vitro ADMET Properties” (J Med Chem, 2018).

One may read the IC50 as the concentration needed to halve the response being measured. As a reminder, the Papp is the rate of passage across a membrane or cell layer, normalised by area and donor concentration. One may read the EC50 as the concentration that produces a half-maximal response. As usually defined, the IC90 is the concentration needed for an effect of 90%. The term amount remaining denotes what is left of the initial amount, in per cent. A word on the inhibition: it is the drop in the measured response relative to a control, in per cent. One may read the half-life as the time in which the quantity being followed falls by half. A high value points to slow decline.

Bounds are passed on as bounds.

Sequence of Cytochrome P450 2C19 (P33261 whole entry): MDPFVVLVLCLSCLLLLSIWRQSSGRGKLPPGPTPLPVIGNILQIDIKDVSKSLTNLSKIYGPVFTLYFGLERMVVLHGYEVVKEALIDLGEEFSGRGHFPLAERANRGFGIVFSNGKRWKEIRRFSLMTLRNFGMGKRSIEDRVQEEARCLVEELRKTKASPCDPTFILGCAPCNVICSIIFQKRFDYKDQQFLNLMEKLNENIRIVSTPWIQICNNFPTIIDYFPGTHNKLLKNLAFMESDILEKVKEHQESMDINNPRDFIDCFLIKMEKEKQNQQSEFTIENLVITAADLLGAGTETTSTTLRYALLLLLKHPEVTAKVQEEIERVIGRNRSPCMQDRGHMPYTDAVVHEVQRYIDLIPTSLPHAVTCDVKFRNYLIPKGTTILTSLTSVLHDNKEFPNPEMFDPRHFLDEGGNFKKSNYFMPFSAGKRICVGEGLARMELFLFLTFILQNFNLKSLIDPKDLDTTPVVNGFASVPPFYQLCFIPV
T1 sequence (P61073 whole entry): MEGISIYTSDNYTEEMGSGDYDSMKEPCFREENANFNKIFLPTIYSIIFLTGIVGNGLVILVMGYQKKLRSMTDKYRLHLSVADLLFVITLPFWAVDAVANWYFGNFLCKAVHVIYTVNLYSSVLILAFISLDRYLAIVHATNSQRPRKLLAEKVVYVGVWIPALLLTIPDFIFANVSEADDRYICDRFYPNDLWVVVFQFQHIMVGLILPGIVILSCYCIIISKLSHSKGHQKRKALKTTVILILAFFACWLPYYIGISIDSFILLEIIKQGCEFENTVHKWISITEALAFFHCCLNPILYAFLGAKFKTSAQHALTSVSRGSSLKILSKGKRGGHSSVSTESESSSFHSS
Sequence of Cytochrome P450 2C9 (P11712 whole entry): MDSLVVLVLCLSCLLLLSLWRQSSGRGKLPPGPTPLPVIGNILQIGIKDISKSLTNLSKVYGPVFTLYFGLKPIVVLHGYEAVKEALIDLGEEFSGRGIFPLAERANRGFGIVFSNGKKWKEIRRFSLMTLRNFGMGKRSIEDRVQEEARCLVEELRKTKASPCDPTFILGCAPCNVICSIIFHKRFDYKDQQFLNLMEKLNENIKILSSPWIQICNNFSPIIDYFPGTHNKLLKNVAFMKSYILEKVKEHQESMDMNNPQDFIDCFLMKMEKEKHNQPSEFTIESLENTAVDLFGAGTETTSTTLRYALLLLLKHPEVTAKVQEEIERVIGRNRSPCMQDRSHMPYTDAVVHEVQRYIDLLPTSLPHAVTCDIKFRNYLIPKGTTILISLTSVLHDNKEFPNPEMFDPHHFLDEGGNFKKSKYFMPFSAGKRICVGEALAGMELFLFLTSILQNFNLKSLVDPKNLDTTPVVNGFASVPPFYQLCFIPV
Sequence of C-X-C chemokine receptor type 4 (Mus musculus, UniProt P70658) (P70658 whole entry): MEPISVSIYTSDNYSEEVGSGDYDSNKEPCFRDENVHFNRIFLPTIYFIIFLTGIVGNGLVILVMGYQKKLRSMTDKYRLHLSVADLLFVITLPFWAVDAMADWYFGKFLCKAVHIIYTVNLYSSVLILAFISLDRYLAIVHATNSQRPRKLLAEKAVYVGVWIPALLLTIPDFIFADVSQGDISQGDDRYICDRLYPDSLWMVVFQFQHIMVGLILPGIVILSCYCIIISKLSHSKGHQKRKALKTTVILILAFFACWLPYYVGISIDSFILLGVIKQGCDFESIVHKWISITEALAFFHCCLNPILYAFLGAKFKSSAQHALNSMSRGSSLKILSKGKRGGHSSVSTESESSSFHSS
Sequence of Cytochrome P450 2D6 (P10635 whole entry): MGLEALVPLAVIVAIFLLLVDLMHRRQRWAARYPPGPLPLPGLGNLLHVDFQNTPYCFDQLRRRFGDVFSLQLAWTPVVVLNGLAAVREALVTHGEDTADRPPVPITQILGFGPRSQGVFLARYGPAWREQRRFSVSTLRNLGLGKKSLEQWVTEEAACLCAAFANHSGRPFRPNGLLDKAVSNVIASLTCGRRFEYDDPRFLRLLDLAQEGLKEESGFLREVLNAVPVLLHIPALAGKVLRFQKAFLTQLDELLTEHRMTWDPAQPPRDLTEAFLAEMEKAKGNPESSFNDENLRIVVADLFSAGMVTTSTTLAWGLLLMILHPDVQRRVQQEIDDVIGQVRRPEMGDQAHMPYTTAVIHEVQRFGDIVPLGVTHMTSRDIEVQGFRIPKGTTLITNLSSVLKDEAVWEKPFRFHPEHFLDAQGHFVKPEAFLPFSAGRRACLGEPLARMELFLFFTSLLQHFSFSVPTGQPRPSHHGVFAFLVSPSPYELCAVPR
Sequence of Cytochrome P450 3A4 (P08684 whole entry): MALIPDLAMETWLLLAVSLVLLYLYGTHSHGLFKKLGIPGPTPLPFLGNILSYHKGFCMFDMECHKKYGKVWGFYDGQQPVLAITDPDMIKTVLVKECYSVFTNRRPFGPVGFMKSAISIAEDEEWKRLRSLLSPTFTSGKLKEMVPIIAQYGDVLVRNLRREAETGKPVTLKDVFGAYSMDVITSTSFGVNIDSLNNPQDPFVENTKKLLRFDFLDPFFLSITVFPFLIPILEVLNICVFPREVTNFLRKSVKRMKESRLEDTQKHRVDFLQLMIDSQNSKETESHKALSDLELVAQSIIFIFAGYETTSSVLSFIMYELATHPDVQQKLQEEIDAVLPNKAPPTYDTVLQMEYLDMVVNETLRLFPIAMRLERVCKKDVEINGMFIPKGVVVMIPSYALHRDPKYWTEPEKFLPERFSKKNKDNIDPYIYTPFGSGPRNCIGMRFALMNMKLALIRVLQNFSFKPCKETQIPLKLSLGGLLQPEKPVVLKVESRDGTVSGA

For `C(=C\CN(C[C@H]1Cc2ccccc2CN1)[C@H]1CCCc2cccnc21)/CNCC1CCOCC1`, the IC50 was below 5 µM on Cytochrome P450 2C9; 0.00547 µM in data set [3]; 3.32 µM on Cytochrome P450 2D6; below 5 µM at Cytochrome P450 2C19; below 5 µM in data set [7]; 19.9 µM in [9]. On Cytochrome P450 2C8, this molecule showed an IC50 below 5 µM. The figures for the Papp at 4 h, 100 µM in data set [1] and in data set [2] were 12.2 ×10⁻⁶ cm/s and 3.35 ×10⁻⁶ cm/s, respectively. The EC50 in data set [4] and in data set [6] was above 30 µM in each case. Moreover, in [5], the IC90 was found to be 0.195 µM. The share remaining at 10 min, 0.5 µM amounted to 32.3% in data set [8] and 74.5% in data set [10].
On to `C(=C\CN(C[C@H]1Cc2ccccc2CN1)[C@H]1CCCc2cccnc21)/CNC1CCOCC1`, for which the IC50 was below 5 µM on Cytochrome P450 2C9; 0.00924 µM in [3]; 2.61 µM at Cytochrome P450 2D6; below 5 µM at Cytochrome P450 2C19; below 5 µM in data set [7]; 5.61 µM in [9]. For the same molecule, the IC50 against Cytochrome P450 2C8 was below 5 µM. Also, the figures for the Papp at 4 h, 100 µM in [1] and in [2] were 43.4 ×10⁻⁶ cm/s and 10.5 ×10⁻⁶ cm/s, respectively. The EC50 in [4] and in data set [6] was above 30 µM in each case. In addition, the IC90 in [5] is 0.191 µM. In addition, the share remaining at 10 min, 0.5 µM was 10% in data set [8] and 69.9% in data set [10].
As for `CC(C)(CCN(C[C@H]1Cc2ccccc2CN1)[C@H]1CCCc2cccnc21)CNC1CCOCC1`, the IC50 on Cytochrome P450 3A4 was 17.7 µM; at Cytochrome P450 2C9, below 5 µM; in [3], 0.02 µM; in [5] it was 0.0363 µM; at Cytochrome P450 2D6 it was 6.21 µM; on Cytochrome P450 2C19, below 5 µM. The IC50 in data set [7] is below 5 µM; in data set [9], 11.5 µM; against Cytochrome P450 2C8, below 5 µM. The Papp at 4 h, 100 µM in data set [1] and in data set [2] was 5.7 ×10⁻⁶ cm/s throughout. Also, the EC50 in data set [4] and in [6] was above 30 µM in each case. Further, the IC90 in data set [5] was 0.416 µM. Besides, the fraction remaining at 10 min, 0.5 µM in data set [8] came to 49.8%; in data set [10], 21.8%.
Turning to `NCCCCN(C[C@H]1Cc2ccccc2CN1)[C@H]1CCCc2cccnc21`, the inhibition in the data set listed under Homo sapiens was below 10%. Moreover, the half-life in data set [11] was 6 h; in data set [12], 1 h. In data set [2], the Papp at 4 h, 100 µM was found to be 0.6 ×10⁻⁶ cm/s. Besides, the IC90 in [5] was found to be 0.0326 µM. Moreover, the EC50 in [6] is above 30 µM. In data set [9], the IC50 was above 30 µM.
